Literature values, collected in US20110288064A1, “METHODS FOR TREATING DISORDERS ASSOCIATED WITH […] IN A MAMMAL” (priority 2005, published 2011).
Entries after “also recorded” stand apart in the source; their conditions may differ. Like-named read-outs stand apart in the source and are kept apart here.

Key:
[1] = hoFH patients, ezetimibe 10 mg/day added to maximal statin regimen (atorvastatin or simvastatin 80 mg/day)
[2] = clinical studies
[3] = animal model for homozygous FH, for example at 25 mg/day
[4] = patients, 25 mg/day monotherapy

Which “total reduction of LDL-C levels” value [1] does the source give for `O=C1[C@H](CC[C@H](O)c2ccc(F)cc2)[C@@H](c2ccc(O)cc2)N1c1ccc(F)cc1` [ezetimibe] here?
Its value is 27%.

For `Cc1cc(C)c2c3ccccc3n(Cc3ccc([C@@H](C(=O)N[C@H](CO)c4ccccc4)C4CCCC4)cc3)c2n1` [implitapide, (2S)-2-cyclopentyl-2-[4-[(2,4-dimethyl-9H-pyrido[2,3-b]indol-9-yl)methyl]phenyl]-N-[(1S)-2-hydroxy-1-phenylethyl]ethanamide], which therapeutic efficacy ([2]; 80 mg/day or greater) is on record?
The therapeutic efficacy was “therapeutically effective”.

What about the adverse events ([2]; 80 mg/day or greater (80 mg/day, 160 mg/day)) of the same compound?
The adverse events was “gastrointestinal disturbances, abnormalities in liver function, and hepatic steatosis; also recorded: gastrointestinal disorders, abnormalities in liver function and/or hepatic steatosis”.

For `O=C(NC1CCN(CCCCC2(C(=O)NCC(F)(F)F)c3ccccc3-c3ccccc32)CC1)c1ccccc1-c1ccc(C(F)(F)F)cc1` [BMS-201038, N-(2,2,2-Trifluorethyl)-9-[4-[4-[[[4′-(trifluoromethyl)[1,1′biphenyl]-2-Yl]carbonyl]amino]-1-piperidinyl]butyl]9H-fluorene-9-carboxamide], which plasma cholesterol levels [3] is on record?
The plasma cholesterol levels was “effectively reduced plasma cholesterol levels in a dose dependent manner”.

And the adverse events [4]?
The adverse events was “gastrointestinal disturbances, abnormalities in liver function, and hepatic steatosis; also recorded: gastrointestinal disorders, abnormalities in liver function and/or hepatic steatosis”.
